Patent US11208408B2, “Method of controlling scale in aqueous systems” (NOURYON CHEMICALS INTERNATIONAL B.V., priority 2019, dated 2021)
Counter-ions that a name gives are not always drawn.

Assays:
[1] = Fluorescent signal of starting amine, monomers and polymers at pH 7 (Example 22); type: physicochemical; conditions: 45 ppb of amine or monomer
Method: The fluorescent signal for the starting N-(3-dimethylaminopropyl)-4-methoxy-1,8-naphthalilmide, the monomers from Monomer Example 3 and 3a (comparative) and the polymers of Polymer Example 20 (comparative) and Polymer Example 21 were measured at 10 ppm polymer and 45 ppb of N-(3-dimethylaminopropyl)-4-methoxy-1,8-naphthalilmide and monomers at pH 7.

[2] = Fluorescent signal of polymers diluted to 10 ppm at pH 9 (Shimadzu RF-6000 spectro fluorimeter); type: physicochemical; conditions: non-monomer intermediate at 59 ppb
Method: The polymer samples from Polymer Examples 1-4 each were diluted in water to 10 ppm and the pH was adjusted to 9, and the fluorescent signal was determined by excitation of the sample at the excitation wavelengths and measurement at the emission wavelengths as stated in Table 1 using a Shimadzu RF-6000 model spectro fluorimeter.
The fluorescence signal for the polymer of Example 1 at 10 ppm and at pH 9 was measured. Also, the fluorescence intensity of the intermediate N-(3-dimethylaminopropyl)-4-methoxy-1,8-naphthalilmide non-monomer intermediate used to synthesize the monomer used in Example 1 was measured at pH 9 and at 59 ppb. The 59 ppb was used because this is the amount of monomer that would have been present in 10 ppm of polymer.

Compound	Emission wavelength λ [1] [nm]	Excitation wavelength λ [1] [nm]	Fluorescence intensity [1]	Emission wavelength λ [2] [nm]	Excitation wavelength λ [2] [nm]	Fluorescence intensity [2]
4-methoxy-N-(3-dimethylaminopropyl)-1,8-naphthalimide, 2-hydroxy-3-allyloxy propyl, quaternary salt [Monomer Example 3a, reference compound]	460	376	8312	–	–	–
C=CCOCC(O)C[N+](C)(C)CCCN1C(=O)c2cccc3c(OC)ccc(c23)C1=O (stereo not drawn) [Monomer Example 3, 4-methoxy-N-(3-dimethylaminopropyl)-1,8-naphthalimide, 1 or 2-hydroxy-3-allyloxy propyl, quaternary salt]	460	376	6774	–	–	–
COc1ccc2c3c(cccc13)C(=O)N(CCCN(C)C)C2=O [N-(3-dimethylaminopropyl)-4-methoxy-1,8-naphthalimide]	460	376	9850	462	376	7788
